Values quoted from earlier work as cited in US8410082B2, “Fluorinated diaryl urea derivatives” (Concert Pharmaceuticals, Inc., priority 2009, dated 2013).

Conditions: main circulating metabolite of sorafenib in plasma

share of circulating analytes at steady-state: 9-16%
SMILES: [O-][n+]1ccccc1 [pyridine N-oxide]
